Reference: patent publication US20130202698A1 (NANJING SANHOME PHARMACEUTICAL CO., LTD., priority 2005, published 2013)
Marks after values point to notes of the source that are not given here.

Assays:
[1] = Phase I clinical trials, intravenous, adverse events; format: in vivo; details: human phase I, 1.0 g, I.V., qd × 1d
Experimental: The clinical trials were conducted to test if the toxicities observed in animal models would correlate with the adverse effects in humans. Double-blinded, randomized controlled human phase I and phase II clinical trials were carried out to compare L-ornidazole with racemate in both intravenous (I.V.) and oral formulations. L-ornidazole caused remarkably less adverse events (related to nervous system) than the racemate in both I.V. and oral routes. Such adverse drug events may cause non-compliance in patients being treated, which could be dangerous for life-threatening infections.

[2] = system: spontaneous activities of mice; assay: Effects on spontaneous activities of mice; details: Mean ± SD, n=10
[3] = system: motor balance and coordination; assay: Motor balance and coordination, modified beam walking method; details: mice, n=10

Cc1ncc([N+](=O)[O-])n1CC(O)CCl (racemic) [Racemic ornidazole, 1-(3-Chloro-2-hydroxypropyl)-2-methyl-5-nitroimidazole]
# of Patients Reporting Adverse Events/Total Patients [1]: 5/10
Spontaneous Activities (per 5 min) ([2]; 40 mg/kg i.v., 0.5 h post-dose): 79 ± 26 per 5 min
Spontaneous Activities (per 5 min) ([2]; 40 mg/kg i.v., 1 h post-dose): 56 ± 37 per 5 min
Spontaneous Activities (per 5 min) ([2]; 40 mg/kg i.v., 2 h post-dose): 63 ± 23 per 5 min
Spontaneous Activities (per 5 min) ([2]; 40 mg/kg i.v., 3 h post-dose): 62 ± 24 per 5 min
Spontaneous Activities (per 5 min) ([2]; 40 mg/kg i.v., 4 h post-dose): 72 ± 35 per 5 min
Spontaneous Activities (per 5 min) ([2]; 80 mg/kg i.v., 0.5 h post-dose): 48 ± 35 per 5 min
Spontaneous Activities (per 5 min) ([2]; 80 mg/kg i.v., 1 h post-dose): 26 ± 19 per 5 min
Spontaneous Activities (per 5 min) ([2]; 80 mg/kg i.v., 2 h post-dose): 32 ± 21 per 5 min
Spontaneous Activities (per 5 min) ([2]; 80 mg/kg i.v., 3 h post-dose): 55 ± 27 per 5 min
Spontaneous Activities (per 5 min) ([2]; 80 mg/kg i.v., 4 h post-dose): 61 ± 20 per 5 min
Spontaneous Activities (per 5 min) ([2]; 160 mg/kg i.v., 0.5 h post-dose): 29 ± 17 per 5 min
Spontaneous Activities (per 5 min) ([2]; 160 mg/kg i.v., 1 h post-dose): 22 ± 14 per 5 min
Spontaneous Activities (per 5 min) ([2]; 160 mg/kg i.v., 2 h post-dose): 21 ± 12 per 5 min
Spontaneous Activities (per 5 min) ([2]; 160 mg/kg i.v., 3 h post-dose): 30 ± 13 per 5 min
Spontaneous Activities (per 5 min) ([2]; 160 mg/kg i.v., 4 h post-dose): 51 ± 23 per 5 min
Number of Animals Fall Off ([3]; 40 mg/kg, 0.5 hours post-dose): 1
Number of Animals Fall Off ([3]; 40 mg/kg, 1 hours post-dose): 0
Number of Animals Fall Off ([3]; 40 mg/kg, 2 hours post-dose): 0
Number of Animals Fall Off ([3]; 40 mg/kg, 3 hours post-dose): 0
Number of Animals Fall Off ([3]; 40 mg/kg, 4 hours post-dose): 0
Number of Animals Fall Off ([3]; 80 mg/kg, 0.5 hours post-dose): 0
Number of Animals Fall Off ([3]; 80 mg/kg, 1 hours post-dose): 0
Number of Animals Fall Off ([3]; 80 mg/kg, 2 hours post-dose): 2
Number of Animals Fall Off ([3]; 80 mg/kg, 3 hours post-dose): 0
Number of Animals Fall Off ([3]; 80 mg/kg, 4 hours post-dose): 0
Number of Animals Fall Off ([3]; 160 mg/kg, 0.5 hours post-dose): 10##
Number of Animals Fall Off ([3]; 160 mg/kg, 1 hours post-dose): 8##
Number of Animals Fall Off ([3]; 160 mg/kg, 2 hours post-dose): 6
Number of Animals Fall Off ([3]; 160 mg/kg, 3 hours post-dose): 4
Number of Animals Fall Off ([3]; 160 mg/kg, 4 hours post-dose): 3
